Assay [1] deals with T1, Inhibitor of nuclear factor kappa-B kinase subunit epsilon (Homo sapiens) (UniProt Q14164).
T1 sequence (whole entry): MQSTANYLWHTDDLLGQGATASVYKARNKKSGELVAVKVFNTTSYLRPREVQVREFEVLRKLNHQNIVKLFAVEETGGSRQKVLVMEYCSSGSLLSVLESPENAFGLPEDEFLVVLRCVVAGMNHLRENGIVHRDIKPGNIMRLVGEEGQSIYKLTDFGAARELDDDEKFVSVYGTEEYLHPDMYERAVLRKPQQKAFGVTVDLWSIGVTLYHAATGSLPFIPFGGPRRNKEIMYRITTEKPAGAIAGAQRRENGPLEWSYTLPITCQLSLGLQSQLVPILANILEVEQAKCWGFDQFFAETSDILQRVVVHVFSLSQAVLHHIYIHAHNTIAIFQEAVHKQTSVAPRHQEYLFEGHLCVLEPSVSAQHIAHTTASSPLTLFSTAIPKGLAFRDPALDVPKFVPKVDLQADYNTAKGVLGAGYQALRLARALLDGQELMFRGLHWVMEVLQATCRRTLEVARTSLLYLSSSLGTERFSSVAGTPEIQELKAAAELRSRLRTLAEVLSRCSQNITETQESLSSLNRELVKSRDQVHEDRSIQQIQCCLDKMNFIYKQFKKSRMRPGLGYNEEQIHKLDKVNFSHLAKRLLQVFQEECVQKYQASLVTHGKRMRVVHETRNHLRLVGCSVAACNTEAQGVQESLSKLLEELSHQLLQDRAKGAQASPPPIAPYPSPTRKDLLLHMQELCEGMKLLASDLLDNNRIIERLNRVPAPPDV
Nature of the assay: Percentage IKKepsilon activity remaining in the presence of 0.1uM inhibitor. The settings on record: filed as antagonist.

Assay [2] concerns the target Homeodomain-interacting protein kinase 3 (Homo sapiens) (UniProt Q9H422). Nature of the assay: Percentage HIPK3 activity remaining in the presence of 3uM inhibitor.
Assay [3] has as its target T2, Aurora kinase C (Homo sapiens) (UniProt Q9UQB9).
T2 sequence (whole entry): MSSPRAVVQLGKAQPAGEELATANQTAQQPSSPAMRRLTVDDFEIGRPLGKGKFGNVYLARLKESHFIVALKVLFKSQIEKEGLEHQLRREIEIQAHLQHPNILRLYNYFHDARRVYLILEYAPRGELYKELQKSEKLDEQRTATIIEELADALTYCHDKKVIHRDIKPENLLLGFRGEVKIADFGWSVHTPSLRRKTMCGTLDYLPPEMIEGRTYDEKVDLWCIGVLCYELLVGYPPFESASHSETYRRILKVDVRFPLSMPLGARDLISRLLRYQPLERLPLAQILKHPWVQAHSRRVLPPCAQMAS
Description: Percentage Aurora C activity remaining in the presence of 3uM inhibitor.

A further assay concerns the target Aurora kinase B (Homo sapiens, UniProt Q96GD4). Description: Percentage Aurora B activity remaining in the presence of 3uM inhibitor.
In assay [4] the target is Mitogen-activated protein kinase 10 (Homo sapiens) (UniProt P53779). Description: Percentage JNK3 activity remaining in the presence of 2uM inhibitor.
Mitogen-activated protein kinase 10 (Homo sapiens), sequence (P53779 whole entry): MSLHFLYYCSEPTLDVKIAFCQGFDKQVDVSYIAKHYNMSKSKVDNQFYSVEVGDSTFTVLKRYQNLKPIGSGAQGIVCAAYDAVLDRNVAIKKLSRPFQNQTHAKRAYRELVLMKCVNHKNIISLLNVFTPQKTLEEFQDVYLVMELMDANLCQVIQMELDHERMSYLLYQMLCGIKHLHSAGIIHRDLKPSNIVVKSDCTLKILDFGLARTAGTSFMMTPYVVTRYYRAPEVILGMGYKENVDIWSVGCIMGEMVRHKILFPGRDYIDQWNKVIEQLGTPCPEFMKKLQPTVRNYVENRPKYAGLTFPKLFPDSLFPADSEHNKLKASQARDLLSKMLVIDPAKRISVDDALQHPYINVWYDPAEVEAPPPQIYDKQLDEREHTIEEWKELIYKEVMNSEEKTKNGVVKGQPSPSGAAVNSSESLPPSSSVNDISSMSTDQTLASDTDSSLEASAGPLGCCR
For assay [5], the target named is T3, Inhibitor of nuclear factor kappa-B kinase subunit beta (Homo sapiens) (UniProt O14920).
T3 sequence (whole entry): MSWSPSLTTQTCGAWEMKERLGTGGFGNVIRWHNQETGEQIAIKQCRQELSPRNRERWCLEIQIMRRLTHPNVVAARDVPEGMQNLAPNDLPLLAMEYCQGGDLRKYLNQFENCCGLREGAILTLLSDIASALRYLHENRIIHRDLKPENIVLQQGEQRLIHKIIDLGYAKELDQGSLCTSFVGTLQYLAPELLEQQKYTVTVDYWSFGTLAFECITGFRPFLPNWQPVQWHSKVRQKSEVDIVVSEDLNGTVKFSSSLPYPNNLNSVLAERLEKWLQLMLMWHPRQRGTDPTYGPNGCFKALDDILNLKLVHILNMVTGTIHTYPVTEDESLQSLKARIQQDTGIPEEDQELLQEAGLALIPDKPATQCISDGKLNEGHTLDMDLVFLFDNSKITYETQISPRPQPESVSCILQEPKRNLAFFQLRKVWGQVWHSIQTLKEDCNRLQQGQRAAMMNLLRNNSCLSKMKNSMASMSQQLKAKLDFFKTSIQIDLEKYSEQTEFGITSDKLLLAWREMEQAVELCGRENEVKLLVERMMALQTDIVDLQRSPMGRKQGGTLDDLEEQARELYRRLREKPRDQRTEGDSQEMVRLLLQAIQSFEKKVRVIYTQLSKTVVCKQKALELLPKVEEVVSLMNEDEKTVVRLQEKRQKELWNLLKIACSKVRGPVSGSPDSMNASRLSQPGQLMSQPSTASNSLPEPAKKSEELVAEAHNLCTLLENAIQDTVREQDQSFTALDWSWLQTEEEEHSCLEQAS
Description: Percentage IKK-beta activity remaining in the presence of 2uM inhibitor.

The target in assay [6] is Serine/threonine-protein kinase Nek7 (Homo sapiens) (UniProt Q8TDX7). Description: Percentage NEK7 activity remaining in the presence of 2uM inhibitor.
Serine/threonine-protein kinase Nek7 (Homo sapiens), sequence (Q8TDX7 whole entry, looked up): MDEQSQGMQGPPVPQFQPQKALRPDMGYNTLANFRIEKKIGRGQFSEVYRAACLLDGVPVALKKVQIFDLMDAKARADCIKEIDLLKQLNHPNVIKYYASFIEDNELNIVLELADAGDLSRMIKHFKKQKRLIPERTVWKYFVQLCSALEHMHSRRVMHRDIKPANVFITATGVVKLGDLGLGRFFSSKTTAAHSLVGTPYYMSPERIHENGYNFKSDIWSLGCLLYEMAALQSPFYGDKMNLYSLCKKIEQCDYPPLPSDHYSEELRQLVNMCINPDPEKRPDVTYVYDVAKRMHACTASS
The target of assay [7] is T4, Serine/threonine-protein kinase Nek2 (Homo sapiens) (UniProt P51955).
T4 sequence (whole entry): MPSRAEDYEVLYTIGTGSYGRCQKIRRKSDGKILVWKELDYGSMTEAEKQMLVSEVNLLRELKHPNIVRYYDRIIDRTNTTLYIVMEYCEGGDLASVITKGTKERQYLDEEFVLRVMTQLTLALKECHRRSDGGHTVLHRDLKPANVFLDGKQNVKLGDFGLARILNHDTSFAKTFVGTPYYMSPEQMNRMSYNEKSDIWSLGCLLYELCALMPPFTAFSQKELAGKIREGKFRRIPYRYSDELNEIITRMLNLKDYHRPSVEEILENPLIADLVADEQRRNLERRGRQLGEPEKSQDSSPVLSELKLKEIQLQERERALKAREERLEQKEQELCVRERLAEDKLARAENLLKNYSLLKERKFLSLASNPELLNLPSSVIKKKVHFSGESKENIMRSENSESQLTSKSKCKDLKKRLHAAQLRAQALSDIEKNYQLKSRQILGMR
Description: Percentage NEK2a activity remaining in the presence of 2uM inhibitor.

The target of assay [8] is Mitogen-activated protein kinase 8 (Homo sapiens, UniProt P45983). Nature of the assay: Percentage JNK1 activity remaining in the presence of 25uM inhibitor.
Mitogen-activated protein kinase 8, sequence (P45983 whole entry): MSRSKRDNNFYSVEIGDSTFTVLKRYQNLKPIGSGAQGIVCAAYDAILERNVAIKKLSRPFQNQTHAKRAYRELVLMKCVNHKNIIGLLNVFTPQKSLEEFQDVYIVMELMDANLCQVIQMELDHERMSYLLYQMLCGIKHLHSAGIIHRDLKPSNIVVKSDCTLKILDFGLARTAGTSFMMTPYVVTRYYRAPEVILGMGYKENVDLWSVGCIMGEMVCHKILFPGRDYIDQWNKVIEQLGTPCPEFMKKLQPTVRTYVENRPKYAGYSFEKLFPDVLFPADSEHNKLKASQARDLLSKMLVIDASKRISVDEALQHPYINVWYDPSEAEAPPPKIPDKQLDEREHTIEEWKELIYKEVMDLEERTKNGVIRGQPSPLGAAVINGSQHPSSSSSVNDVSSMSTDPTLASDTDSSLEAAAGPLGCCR

Homeodomain-interacting protein kinase 3 (Homo sapiens), sequence (Q9H422 whole entry, looked up): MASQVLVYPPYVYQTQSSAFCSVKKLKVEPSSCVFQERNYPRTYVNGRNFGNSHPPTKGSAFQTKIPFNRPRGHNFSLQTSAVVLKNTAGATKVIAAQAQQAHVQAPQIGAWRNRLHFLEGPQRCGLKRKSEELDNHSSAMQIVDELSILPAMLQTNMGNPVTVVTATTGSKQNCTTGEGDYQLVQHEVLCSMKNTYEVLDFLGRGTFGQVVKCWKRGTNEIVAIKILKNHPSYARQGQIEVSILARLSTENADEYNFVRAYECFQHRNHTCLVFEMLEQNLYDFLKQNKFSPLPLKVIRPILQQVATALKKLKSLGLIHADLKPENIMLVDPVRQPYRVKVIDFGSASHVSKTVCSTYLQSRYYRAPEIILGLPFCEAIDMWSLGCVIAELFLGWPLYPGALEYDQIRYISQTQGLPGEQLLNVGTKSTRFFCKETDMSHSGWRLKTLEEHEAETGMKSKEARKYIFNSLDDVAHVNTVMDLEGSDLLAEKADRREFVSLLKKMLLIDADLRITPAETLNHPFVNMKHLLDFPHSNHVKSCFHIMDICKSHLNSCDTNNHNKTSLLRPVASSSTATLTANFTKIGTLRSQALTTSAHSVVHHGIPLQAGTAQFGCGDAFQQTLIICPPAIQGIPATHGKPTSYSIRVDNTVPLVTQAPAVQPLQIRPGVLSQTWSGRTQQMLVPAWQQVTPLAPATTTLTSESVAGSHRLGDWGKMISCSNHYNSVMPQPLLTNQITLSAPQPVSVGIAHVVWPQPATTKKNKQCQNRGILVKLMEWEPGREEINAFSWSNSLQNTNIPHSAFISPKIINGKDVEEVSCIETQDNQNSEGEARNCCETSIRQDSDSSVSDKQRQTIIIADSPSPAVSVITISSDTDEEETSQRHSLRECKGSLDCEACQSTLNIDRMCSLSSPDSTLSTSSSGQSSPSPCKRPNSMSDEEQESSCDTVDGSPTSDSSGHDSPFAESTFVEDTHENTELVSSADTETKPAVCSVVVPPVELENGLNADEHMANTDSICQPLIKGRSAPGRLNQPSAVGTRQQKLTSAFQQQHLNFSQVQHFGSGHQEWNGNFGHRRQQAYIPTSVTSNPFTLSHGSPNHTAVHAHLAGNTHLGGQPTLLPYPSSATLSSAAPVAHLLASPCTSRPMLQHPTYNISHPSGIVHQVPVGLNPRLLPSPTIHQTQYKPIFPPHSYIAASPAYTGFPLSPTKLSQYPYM
Aurora kinase B, sequence (Q96GD4 whole entry): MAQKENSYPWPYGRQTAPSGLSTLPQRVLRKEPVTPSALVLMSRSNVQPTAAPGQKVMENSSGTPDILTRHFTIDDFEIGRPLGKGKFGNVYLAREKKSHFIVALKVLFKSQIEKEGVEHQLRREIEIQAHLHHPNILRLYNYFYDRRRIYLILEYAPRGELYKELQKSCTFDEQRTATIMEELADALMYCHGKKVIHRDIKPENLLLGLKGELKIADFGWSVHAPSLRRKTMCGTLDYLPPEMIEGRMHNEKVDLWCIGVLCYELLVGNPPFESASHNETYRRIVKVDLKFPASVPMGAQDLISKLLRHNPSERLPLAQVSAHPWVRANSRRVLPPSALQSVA

On to `O=C(NCCCNc1nc(Nc2cccc(NC(=O)N3CCCC3)c2)ncc1I)c1cccs1`, for which the Activity in assay [1] is 0%.
`Cc1ccc(-c2c(C(=O)CF)n(CCCO)c3ncnc(N)c23)cc1`: the figures for the Activity (in assay [2]; in assay [3]; on Aurora kinase B) were 79%, 75% and 59%, respectively.
In the case of `Cn1cc(C2=C(c3ccc(Cl)cc3Cl)C(=O)NC2=O)c2ccccc21`, the Activity is 88% in assay [4], 99% in assay [5], 85% in [6] and 74% in assay [7].
`NCCNS(=O)(=O)c1ccc(Cl)c2ccncc12`: the Activity in assay [8] stood at 91%.

(Values after ChEMBL document CHEMBL1150976, “The selectivity of protein kinase inhibitors: a further update” (Biochem J, 2007).)
